Results taken from US12594284B2, “Combination of micronutrients to stimulate the endogenous production of hydrogen sulfide (H2S)” (priority 2020, dated 2026).

Legend:
reductive stress = test: Reductive stress induced by vitamin C in healthy male subjects (plasma NADH, erythrocyte GSH); type: in vivo, human; details: vitamin C 2 gr per day alone, 1 week
Description: Vitamin C caused a subclinical reductive stress as reported by a 40% increase of plasma NADH and 31% and 63% increase of erythrocyte GSH and GSH to GSSG ratio, respectively. […] Thus, the aforementioned composition prevented the reductive stress induced by a powerful reducing agent.

[1] = system: endogenous production of H2S (CBS, CSE, 3MST); test: Inventor's observations on administration of the micronutrients to humans (H2S production markers, redox, homocysteine, insulin resistance); type: in vivo, human; details: for triggering of the H2S system by form of vitamin B6: subjects possibly with genetic weakness of vitamin B6 activation and recycling
[2] = system: endogenous production of H2S (CBS, CSE, 3MST); details: subjects with chronically low-vitamin B6 status; cited from earlier work
[3] = system: blood pressure of pre-hypertensive patients; details: cited from earlier work
[4] = taurine added to L-cystine supplementation
[5] = taurine 1.6 gr per day, 12 weeks
[6] = vitamin B6 added to taurine and L-cystine supplementation

For `O=C1O[C@H]([C@@H](O)CO)C(O)=C1O` [Vitamin C, vitamin C], the “increase of GSH to GSSG ratio” value (reductive stress) was 63%, the “increase of erythrocyte GSH” value (reductive stress) was 31% and the “increase of plasma NADH” value (reductive stress) was 40%.
In the case of `N[C@@H](CS)C(=O)O` [cysteine], the H2S levels ([1]; isolated cysteine administration) is reported as “fail to increase H2S levels”.
In the case of `Cc1ncc(COP(=O)(O)O)c(C=O)c1O` [pyridoxal-5-phosphate], the “triggering of the H2S system by form of vitamin B6” value [1] is reported as “responded normally”.
For `Cc1ncc(CO)c(CO)c1O` [pyridoxine, reference compound], the “plasma concentrations of lanthionine and homolanthionine” value [2] is listed as “did not respond” and the “triggering of the H2S system by form of vitamin B6” value [1] is listed as “failed to trigger the system in some subjects”.
For `NCCS(=O)(=O)O` [taurine], the “daily amounts that do not produce any further added effect” value [1, 4] is given as > 2000 mg, the “daily dose at which increased H2S production compared to L-cystine alone is already measured” value [1, 4] is given as 100 mg per day and the “expression of CBS and CSE” value ([3]; human, in vivo) is given as “induced the expression of CBS and CSE”. For the same molecule, the “circulating H2S” value [3, 5] was “increase of circulating H2S”, the “reduction of diastolic blood pressure” value [3, 5] was 3.4 mm Hg and the “reduction of systolic blood pressure” value [3, 5] was 4.6 mm Hg.
With `Cc1ncc(CO)c(CO)c1O.Cl` [vitamin B6] the CSE activity ([1]; supra-physiological amounts of vitamin B6) was “effective in activating CSE activity”, the “daily amounts that do not produce any further added effect” value [1, 6] was > 100 mg and the “daily dose at which increased H2S production compared to L-cystine and taurine is already measured” value [1, 6] was 2 mg per day.
